Results from patent US10806711B2 (priority 2011, dated 2020).
“Also recorded” adds a separate entry of the source.

Tests used:
[1] = system: TRPV2^−/− mice; assay: Contractility by echo after IP probenecid in TRPV2−/− mice; format: in vivo, mouse; conditions: 100 mg/kg IP
Method: WT, TRPV2^+/−, and TRPV2^−/− mice were monitored by echo for 30 minutes after injection as described below. Echocardiography—All echocardiographic studies were performed with a Vevo 2100 Ultrasound system (Visualsonics, Toronto Calif.) with an MS400 probe (30 MHz centerline frequency) and were post-processed at a separate workstation with Vevostrain software (Vevo 2100, v1.1.1 B1455, Visualsonic, Toronto, Canada). Images were obtained from PSLAX and short axis (SAX) views at depths between 2 and 10 mm in both M-mode and B-mode. All studies on mice exposed to I/R injury included M-mode, B-mode in PSLAX and strain imaging in SAX. While for the contractility studies, only M-mode measurements were obtained from the PSLAX. Strain imaging was performed from the B-mode images and regional radial strain and circumferential displacement were measured by regional wall and summed average from the SAX images. From the M-mode images, left ventricular cavity size and wall thickness was measured and the ejection fraction (EF) and fractional shortening (FS) calculations were obtained using the Vevo software. […] In addition, the average change from baseline for each time point between 5 and 30 minutes was determined for each mouse, with measurements being taken every 5 minutes. […]

[2] = system: Langendorff perfused hearts of WT mice; assay: Ex vivo (Langendorff) perfused isolated heart; parameters: species or system mouse; conditions: 10^−6 M perfusion
Method: Ex vivo (Langendorff) studies—Isolated heart experiments were performed as previously described on WT mice. […] Measurements were taken every second.

[3] = system: isolated ventricular myocytes; assay: Myocyte contractility measurement; format: cell-based, mouse
Method: Isolation of ventricular myocytes—Hearts from WT mice (12-week old) were perfused on the Langendorff system with a modified Krebs-Henseleit buffer (KHB) composed of (mM) NaCl 118, KCl 5.4, HEPES 10, NaH2PO4 0.33, MgCl2 2, glucose 10, taurine 30, butanedione monoxime 10 (pH=7.4). Then an enzyme solution (KHB containing 0.7 mg/ml type II collagenase, 0.1% BSA and 25 μM CaCl2) was used to digest the hearts for 10 min. Finally, ventricles of the hearts were excised, minced and filtered to obtain isolated cells. After sufficient sedimentation, the supernatant was removed and the cells were resuspended. Myocyte contractility measurement—Myocytes were put on a plexiglass chamber containing a Tyrode's solution composed of (mM) NaCl 140, KCl, 5.4, MgCl2 1, CaCl2 1.8, HEPES 5, glucose 10 (pH=7.4). Myocytes were excited under 0.5 Hz field stimulation. After reaching the steady state, myocyte shortening and the rates of shortening (+dL/dt) and relengthening (−dL/dt) were imaged with a CCD camera and monitored by a video-edge detector. Drugs were dissolved in Tyrode's solution and perfused into the chamber. Data were continuously collected through the PCLAMP 9 software. Water soluble probenecid was used for all of the myocyte experiments.

[4] = system: isolated ventricular myocytes; assay: Myocyte Ca2+ transient and cytosolic Ca2+ measurement; format: cell-based, mouse
Method: Isolation of ventricular myocytes—Hearts from WT mice (12-week old) were perfused on the Langendorff system with a modified Krebs-Henseleit buffer (KHB) composed of (mM) NaCl 118, KCl 5.4, HEPES 10, NaH2PO4 0.33, MgCl2 2, glucose 10, taurine 30, butanedione monoxime 10 (pH=7.4). Then an enzyme solution (KHB containing 0.7 mg/ml type II collagenase, 0.1% BSA and 25 μM CaCl2) was used to digest the hearts for 10 min. Finally, ventricles of the hearts were excised, minced and filtered to obtain isolated cells. After sufficient sedimentation, the supernatant was removed and the cells were resuspended.
Myocyte Ca^2+ transient and cytosolic Ca^2+ measurement—Myocytes were loaded with Fluo-4 acetoxymethyl ester (7 μM) for 20 min at room temperature, followed by a 10 min wash with Tyrode's solution, and then placed onto a plexiglass chamber for recording. For Ca^2+ transient measurements, myocytes were excited under 0.5 Hz and 3 Hz field stimulation, and the fluorescence signals were obtained using a Nikon TE 2000 microscope and collected through an InCyt Standard photometry system. For cytosolic Ca^2+ analysis in quiescent myocytes, a Zeiss LSM 510 confocal microscope was used to record fluorescent images from resting myocytes. Line-scan mode was applied at 3.07 ms intervals with 512 pixels spaced at 0.056 μm. Drugs were dissolved in Tyrode's solution and perfused into the chamber. Images of myocytes were recorded every 30 s after drug application. Data analysis was performed using Clampfit 9.2 and Image J 1.44 software.
Water soluble probenecid was used for all of the myocyte experiments.

[5] = system: mice with and without I/R injury; conditions: mouse, in vivo, po, 6.33 mg/kg/day
Method: The hearts were removed, rinsed with PBS, fixed with 3.7% buffered formaldehyde (after 30 minutes the buffer was changed) and dehydrated (hearts were placed in 70% ethanol after 18-24 hours). The samples were embedded in paraffin, sectioned into thicknesses of 6 μm, each 10 μm apart, and 2 heart sections were placed onto each slide. The slides were prepared using the in situ apoptosis detection kit, CardioTACS (Trevigen, Gaithersburg, Md.) according to the manufacturer's instructions. After staining, the slides were placed on a microscope (Olympus 1×71) and the number of apoptotic cells was counted by two separate and blinded readers in 5 fields of view for each heart section. The total number of cells was also determined for the same field, and the apoptotic cells were calculated to be a percentage of the total cells.
The water was changed twice a week and the volume was measured before and after consumption to determine the approximate dose. The mice were housed 2 to a cage for a more accurate assessment of total dose administered.

[6] = system: TRPV2; conditions: HEK293 cells, identified 2007; cited from earlier work

SMILES: CCCN(CCC)S(=O)(=O)c1ccc(C(=O)O)cc1 [probenecid]
- cardiac response (contractility) during 30 minutes of echocardiogram [1]: no discernable cardiac response; also recorded: absolutely no change in function
- change in average +dP/dt over time ([2]; paced 400 bpm): statistically significant from 90 to 210 seconds; also recorded: significantly different from baseline
- relaxation (−dP/dt) ([2]; increased from 1812±158, P<0.01): 2309±133
- increase of myocyte fractional shortening (FS) ([3]; 0.1 μM, 0.5 Hz, room temp, n=6): 30.8±1.4%
- myocyte fractional shortening (FS) ([3]; 0.1 μM, 0.5 Hz, room temp, from 6.9% control): 9.0%
- myocyte fractional shortening (FS) ([3]; 3 Hz and 32° C., n=4, from 10.1% control): 13.9%
- EC50 ([3]; Mus musculus, Ventricular myocyte, isolated ventricular myocytes, averages from 4 mice, read-out: EC50 of dose-response curve on myocyte contractility): 1.6 nM
- maximum +dL/dt (rate of shortening) ([3]; room temperature, n=10, from 80.6±12.3): 112.5±16.6 μm/sec
- −dL/dt (rate of relengthening) ([3]; room temperature, from 57.7±7.4): 77.6±8.7 μm/sec
- decay rate (Tau) of Ca2+ transient ([4]; 0.1 μM): not affected
- time to peak of cytosolic Ca2+ after treatment ([4]; 0.1 μM): approximately 5 min
- Ca2+ spark frequency ([4]; 0.1 μM for 5 minutes, from 1.45±0.09): 2.99±0.24
- increase of cytosolic Ca2+ compared to control at steady state ([4]; 0.1 μM, quiescent myocytes): 2.5±0.2 fold
- Ca2+ transient amplitude (ΔF/F0) ([4]; 0.1 μM, from 3.35±0.20, P<0.001): 4.25±0.25
- apoptosis in healthy mice [5]: did not induce significant apoptosis
- cytosolic Ca2+ in TRPV2-expressing cells [6]: significant increase
